Converted amounts (≈) assume the structure as drawn. Where two headings read alike, the source gives them in different places.
Legend:
[1] = test system: Aspergillus niger was mixed with Penicillium funiculosum; experiment: Fungal efficacy on dry paint film (Modified ASTM 5590), pool An + Pf; assay type: cell-based; conditions: for % Inhibition An + Pf: four weeks; for % Inhibition, An-Pf: at the total conc printed for the same blend
Protocol: (§1) A single biocide or blend of biocides was post added into white acrylic latex paint free of biocides to give a maximum total active ingredient/s concentration tested. This paint was then diluted with a biocide free acrylic latex paint to give targeted concentrations for the testing. Depending on the type of biocide blends tested, the total biocides concentrations varies from 400 to 3300 ppm. After biocides addition or dilution, each sample was hand mixed for at least a minute until uniformity was achieved. Each of the paint samples as well as a control sample (containing no biocide) were used to prepare films on black plastic-vinyl chloride/acetate copolymer panels (Leneta Company, Mahwah, N.J.) using a 0.0762 mm (3 mil) bird bar applicator. The panels were thoroughly dried for at least 2 days avoiding direct exposure to sunlight. Square discs (0.5 inch^2; 1.27 cm^2) were cut out from each panel and were used as the substrate for fungal and algal efficacy tests. This sample size allowed for an agar border when the sample disc was placed into the well of the test plate. Each sample was tested in duplicate.
(§2) The appropriate media (BOLD'S 3N for Chlorophytes, BG-11 for Cyanobacteria, and PDA for fungi) were used to support microbial growth. The test plates were maintained at room temp (25° C.-26° C.), in a cycled light-dark environment, for four weeks for algae. Plates for fungal challenge tests were maintained at 30° C. for four weeks. At the end of the incubation period the samples were scored for percent area covered by visible microbial growth.
(§3) Fungal efficacy was tested as follows (Modified ASTM 5590).
ASTM 5590 is a standard accelerated test method for determining resistance of various coatings (including paints) to fungal defacement. To accommodate for high-throughput screening, this method was scaled down from petri plates to 6-well plates. To set up the test, an agar plug was placed at the bottom of each well of the sterile 6-well plate. A single coupon was placed with a pair of sterile forceps at the center of the agar plug (on top) with the painted surface facing upwards. Fungal inoculums were prepared by mixing equal concentrations (approximately 1×10^6 cfu/ml) and equal volumes (depending on number of samples to be tested) of like growing organisms. For this synergy study, three pools of mixed fungi were prepared as the test inoculum. Cladosporium herbarum was mixed with Trichoderma viride, Aspergillus niger was mixed with Penicillium funiculosum and Alternaria alternata was mixed with Aureobasidium pullulans. Each well was inoculated with 400 microliter of organism mixture (approximately 1×10^6 cfu/ml) making sure that the whole surface (paint film as well as the agar surrounding it) was evenly covered. The plates were incubated at 30° C. in presence of moisture, for a period of four weeks. The total percent area covered was evaluated and recorded at the end of each week and recorded in increments of 5%.
(§4) The SI is calculated based on F. C. Kull et.
(§5) SI value of <1 in the formula indicates a synergism of the blended biocides exists.
(§6) NE=no end point at the concentration tested that will meet the percent inhibition criteria set in each SI calculation.

[2] = test system: Gloeocapsa sp. and Oscillatoria sp.; experiment: Algal efficacy on dry paint film (Modified ASTM 5589), pool Gs + Os; assay type: cell-based; conditions: for % Inhibition Gs + Os: four weeks; for % Inhibition, Os-Gl: at the total conc printed for the same blend
Protocol: as §1, §2
(§7) Algal efficacy was tested as follows (Modified ASTM 5589).
(§8) ASTM 5589 is a standard accelerated test method for determining resistance of various coatings (including paints) to algal defacement. To accommodate for high-throughput screening, this method was scaled down from petri plates to 6-well plates. A single coupon was placed with a pair of sterile forceps at the center of the agar plug (on top) with the painted surface facing upwards. Algal inoculums were prepared by mixing equal concentrations (approximately 1×10^6 cfu/ml) and equal volumes (depending on number of samples to be inoculated) of like growing organisms.
(§9) In this synergy study, three pool of mixed algae were prepared as the test inoculum, Gloeocapsa sp. and Oscillatoria sp. a mix of cyanobacteria grown on BG-11 media; Chlorella sp., Chlorella kessleri, and Nostoc commune are unicellular chlorphytes that were mixed and grown on Bold media; Trentepohlia aurea, Tretepohlia odorata, and Calotrix parientina are filamentous algae that were mixed and grown on Bold media.
(§10) Each well that contained a tested coupon was inoculated with 400 μl of organism mixture (approximately 1×10^6 cfu/ml) making sure that the whole surface (paint film as well as the agar surrounding it) was evenly covered. The plates were incubated at room temp (25° C.-26° C.) with cyclic exposure to light (OTT-Lite model # OTL4012P, 40 Watt, 26 KLumen) and dark phases, for a period of four weeks. The total area covered was evaluated at the end of each week according to percent area covered in 5% increments.
as §4, §5, §6

[3] = test system: Trentepohlia aurea, Tretepohlia odorata, and Calotrix parientina; experiment: Algal efficacy on dry paint film (Modified ASTM 5589), pool Cp + To + Ta; assay type: cell-based; conditions: for % Inhibition Cp + To + Ta: four weeks; for % Inhibition, Cal-Tre: at the total conc printed for the same blend
Protocol: as §1, §2, §7, §8, §9, §10, §4, §5, §6

[4] = test system: Cladosporium herbarum was mixed with Trichoderma viride; experiment: Fungal efficacy on dry paint film (Modified ASTM 5590), pool TV + Ch; assay type: cell-based; conditions: four weeks
Protocol: (§11) Each sample was tested in duplicate.
as §3

[5] = test system: Chlorella sp., Chlorella kessleri, and Nostoc commune; experiment: Algal efficacy on dry paint film (Modified ASTM 5589), pool Cs + Ck + Nc; assay type: cell-based
Protocol: as §1, §2, §7, §8, §9, §10, §4, §5, §6

[6] = cited from earlier work
[7] = test system: marine algae (Skeletonema costatum); conditions: cited from earlier work
[8] = test system: green algae (Selenastrum capricornutum); conditions: cited from earlier work; for EbC50: biomass
[9] = test system: blue-green algae (Anabaena flos-aquae); conditions: 7 day; cited from earlier work
[10] = test system: Alternaria alternata was mixed with Aureobasidium pullulans; experiment: Fungal efficacy on dry paint film (Modified ASTM 5590), pool Aa + Ap; assay type: cell-based; conditions: 672 h, four weeks
Protocol: as §11, §3

[11] = test system: diatom (Navicula pelliculosa); conditions: 7 day; cited from earlier work
[12] = test system: various algae; conditions: cited from earlier work
[13] = 672 h, read-out: % Inhibition An + Pf
[14] = Nostoc commune, 672 h, read-out: % Inhibition Cs + Ck + Nc
[15] = 672 h, read-out: % Inhibition Gs + Os
[16] = Trentepohlia aurea, 672 h, read-out: % Inhibition Cp + To + Ta

## zinc glyphosate
[1]; 750 ppm in paint
  % Inhibition An + Pf: 20%
[1]; 1500 ppm in paint
  % Inhibition An + Pf: 27.5%
[1]; 2500 ppm in paint
  % Inhibition An + Pf: 30%
[1]; An-Pf
  % Inhibition, An-Pf: 100%
[2]; 750 ppm in paint
  % Inhibition Gs + Os: 15%
[2]; 1500 ppm in paint
  % Inhibition Gs + Os: 72.5%
[2]; 2500 ppm in paint
  % Inhibition Gs + Os: 90%
[2]; Os-Gl
  % Inhibition, Os-Gl: 100%
[3]; 750 ppm in paint
  % Inhibition Cp + To + Ta: 0%
[3]; 1500 ppm in paint
  % Inhibition Cp + To + Ta: 0%
[3]; 2500 ppm in paint
  % Inhibition Cp + To + Ta: 0%
[3]; Cal-Tre
  % Inhibition, Cal-Tre: 100%
[4]; 750 ppm in paint
  % Inhibition TV + Ch: 50%
[4]; 1500 ppm in paint
  % Inhibition TV + Ch: 75%
[4]; 2500 ppm in paint
  % Inhibition TV + Ch: 90%

## zinc pyrithione [ZPT]
[1]; An-Pf
  % Inhibition, An-Pf: 0%
[1]; total active in paint, An-Pf
  Total conc (minimum inhibitory concentration chosen for SI), An-Pf: 3300 pppm
[5]; at the total conc printed for the same blend, Ch-No
  % Inhibition, Ch-No: 80%
[5]; total active in paint, Ch-No
  Total conc (minimum inhibitory concentration chosen for SI), Ch-No: 412.5 pppm
[2]; Os-Gl
  % Inhibition, Os-Gl: 100%
[2]; total active in paint, Os-Gl
  Total conc (minimum inhibitory concentration chosen for SI), Os-Gl: 3300 pppm
[3]; Cal-Tre
  % Inhibition, Cal-Tre: 40%
[3]; total active in paint, Cal-Tre
  Total conc (minimum inhibitory concentration chosen for SI), Cal-Tre: 3300 pppm

## O=C(O)CNCP(=O)(O)O [glyphosate, N-(phosphonomethyl)glycine]
[1]; [13]
  inhibition at 750 ppm: 0%
  inhibition at 1500 ppm: 5%
  inhibition at 2500 ppm: 10%
[6]
  solubility in water: relatively high
[5]; [14]
  inhibition at 750 ppm: 37.5%
  inhibition at 1500 ppm: 60%
  inhibition at 2500 ppm: 80%
[7]; 96 hr
  EC50: 1.3 µg/mL (≈ 7.69 µM)
[7]; 7 day
  EC50: 0.64 µg/mL (≈ 3.79 µM)
[8]; 72 hr
  EbC50: 485 mg/L
[8]; 72 hr, growth rate
  ErC50: 460 mg/L
[8]; 7 day
  EbC50: 13.8 mg/L
[2]; [15]
  inhibition at 750 ppm: 15%
  inhibition at 1500 ppm: 72.5%
  inhibition at 2500 ppm: 90%
[3]; [16]
  inhibition at 750 ppm: 0%
  inhibition at 1500 ppm: 10%
  inhibition at 2500 ppm: 7.5%
[9]
  EC50: 15 µg/mL (≈ 88.7 µM)
[10]; 750 ppm in paint
  inhibition at 750 ppm: 7.5%
[10]; 1500 ppm in paint
  inhibition at 1500 ppm: 20%
[10]; 2500 ppm in paint
  inhibition at 2500 ppm: 67.5%
[4]; 672 h, 750 ppm in paint
  inhibition at 750 ppm: 2.5%
[4]; 672 h, 1500 ppm in paint
  inhibition at 1500 ppm: 50%
[4]; 672 h, 2500 ppm in paint
  inhibition at 2500 ppm: 72.5%
[11]
  EC50: 42 µg/mL (≈ 248 µM)
[12]
  activity against various algae: relatively low

Reference: patent US8691726B2, “Synergistic combination of a glyphosate compound and ZPT” (Dow Global Technologies LLC, priority 2010, dated 2014)
